# Measured values: PubChem BioAssay AID322 (DTP/NCI, 2004)
# Values joined by “and” are separate entries in the source; they are usually repeats but may differ in a detail not shown here. Identical values can stand only once. Toxic doses and inconclusive results are not listed.
# Tested on: CD2F1 mice, P388/ADR leukemia ip, median survival T/C
# Test: NCI In Vivo Anticancer Drug Screen. Data for tumor model P388 Leukemia resistant to Adriamycin; NSC 123127, Developed at Scr 08 (intraperitoneal) in CD2F1 (CDF1) mice
# Conditions: endpoint: median survival time, higher = longer survival
# Description: The antitumor activity of compounds was measured in mice bearing transplantable tumors. Survival or tumor size were measured and the results are expressed as the measurement made in the treated group (T) divided by the measurement made in the vehicle treated control group (C). The tumor model used in this assay is P388 Leukemia resistant to Adriamycin; NSC 123127, Developed at Scr 08 (intraperitoneal) in CD2F1 (CDF1) mice
structure (smiles),measurement,setting,value
CN(C)[C@@H]1C(=O)C(C(=O)NCN2CCN(C(=N)N=C(N)N)CC2)=C(O)[C@@]2(O)C(=O)C3=C(O)c4c(O)cccc4[C@@](C)(O)[C@H]3C[C@@H]12,T/C,"dose: 0.62 mg/kg/injection, schedule: Q01DX005 (ip), vehicle: saline",113 % of control
same,T/C,"dose: 1.25 mg/kg/injection, schedule: Q01DX005 (ip), vehicle: saline",100 % of control
same,T/C,"dose: 1.8 mg/kg/injection, schedule: Q01DX005 (ip), vehicle: suspension in saline",97 % of control
same,T/C,"dose: 2.5 mg/kg/injection, schedule: Q01DX005 (ip), vehicle: saline",106 % of control
same,T/C,"dose: 3.0 mg/kg/injection, schedule: Q01DX005 (ip), vehicle: suspension in saline",115 % of control
same,T/C,"dose: 5.0 mg/kg/injection, schedule: Q01DX005 (ip), vehicle: saline",152 % of control
same,T/C,"dose: 5.0 mg/kg/injection, schedule: Q01DX005 (ip), vehicle: suspension in saline",107 % of control
CN=C(NC)c1ccc(NC(=O)/C=C\c2ccc(/C=C/C(=O)Nc3ccc(C(=NC)NC)cc3)cc2)cc1,T/C,"dose: 1.56 mg/kg/injection, schedule: Q01DX005 (ip), vehicle: Klucel (hydroxypropylcellulose) (HPC)",107 % of control
same,T/C,"dose: 3.12 mg/kg/injection, schedule: Q01DX005 (ip), vehicle: Klucel (hydroxypropylcellulose) (HPC)",109 % of control
same,T/C,"dose: 6.25 mg/kg/injection, schedule: Q01DX005 (ip), vehicle: Klucel (hydroxypropylcellulose) (HPC)",116 % of control
COc1cc2c(c3c1c(=O)c1ccccc1n3C)C=CC(C)(C)O2,T/C,"dose: 12.5 mg/kg/injection, schedule: Q01DX005 (ip), vehicle: saline with Tween-80",115 % of control
same,T/C,"dose: 25.0 mg/kg/injection, schedule: Q01DX005 (ip), vehicle: saline with Tween-80",87 % of control
same,T/C,"dose: 50.0 mg/kg/injection, schedule: Q01DX005 (ip), vehicle: saline with Tween-80",90 % of control
CO[C@@]12[C@H](COC(N)=O)C3=C(C(=O)C(C)=C(N)C3=O)N1C[C@@H]1N[C@@H]12,T/C,"dose: 0.5 mg/kg/injection, schedule: Q01DX009 (ip), vehicle: saline with Tween-80",178 % of control
same,T/C,"dose: 1.0 mg/kg/injection, schedule: Q01DX009 (ip), vehicle: saline with Tween-80",198 % of control and 207 % of control
same,T/C,"dose: 2.0 mg/kg/injection, schedule: Q01DX009 (ip), vehicle: saline with Tween-80",110 % of control and 117 % of control
same,T/C,"dose: 3.6 mg/kg/injection, schedule: Q01DX001 (ip), vehicle: saline",151 % of control
same,T/C,"dose: 3.6 mg/kg/injection, schedule: Q01DX001 (ip), vehicle: water",154 % of control
same,T/C,"dose: 5.4 mg/kg/injection, schedule: Q01DX001 (ip), vehicle: saline",177 % of control
same,T/C,"dose: 5.4 mg/kg/injection, schedule: Q01DX001 (ip), vehicle: water",162 % of control
same,T/C,"dose: 12.0 mg/kg/injection, schedule: Q01DX001 (ip), vehicle: saline",117 % of control
same,T/C,"dose: 12.0 mg/kg/injection, schedule: Q01DX001 (ip), vehicle: water",112 % of control
N[C@@H](Cc1ccc(N(CCCl)CCCl)cc1)C(=O)O,T/C,"dose: 0.5 mg/kg/injection, schedule: Q01DX005 (ip), vehicle: saline",171 % of control and 202 % of control
same,T/C,"dose: 1.0 mg/kg/injection, schedule: Q01DX005 (ip), vehicle: saline",200 % of control and 202 % of control
same,T/C,"dose: 1.62 mg/kg/injection, schedule: Q04DX003 (ip), vehicle: water",207 % of control
same,T/C,"dose: 2.0 mg/kg/injection, schedule: Q01DX005 (ip), vehicle: saline",202 % of control and 297 % of control
same,T/C,"dose: 2.7 mg/kg/injection, schedule: Q04DX003 (ip), vehicle: water",215 % of control
same,T/C,"dose: 4.0 mg/kg/injection, schedule: Q01DX005 (ip), vehicle: saline",202 % of control and 297 % of control
same,T/C,"dose: 4.5 mg/kg/injection, schedule: Q04DX003 (ip), vehicle: water",290 % of control
same,T/C,"dose: 7.5 mg/kg/injection, schedule: Q04DX003 (ip), vehicle: water",109 % of control
same,T/C,"dose: 8.0 mg/kg/injection, schedule: Q01DX005 (ip), vehicle: saline",297 % of control
same,T/C,"dose: 12.5 mg/kg/injection, schedule: Q04DX003 (ip), vehicle: water",95 % of control
